Test results: US20250101041A1, “POSITIVE ALLOSTERIC MODULATORS OF THE MUSCARINIC ACETYLCHOLINE RECEPTOR M4” (Vanderbilt University, priority 2022, published 2025)

Molecular target: T1, human mAChR M4 (Homo sapiens, UniProt P08173)
T1 construct: expressed in transfected cells; host or cells: CHO-K1 (American Type Culture Collection), stably expressing hM4 and Gqi5
T1 sequence (P08173 1-479): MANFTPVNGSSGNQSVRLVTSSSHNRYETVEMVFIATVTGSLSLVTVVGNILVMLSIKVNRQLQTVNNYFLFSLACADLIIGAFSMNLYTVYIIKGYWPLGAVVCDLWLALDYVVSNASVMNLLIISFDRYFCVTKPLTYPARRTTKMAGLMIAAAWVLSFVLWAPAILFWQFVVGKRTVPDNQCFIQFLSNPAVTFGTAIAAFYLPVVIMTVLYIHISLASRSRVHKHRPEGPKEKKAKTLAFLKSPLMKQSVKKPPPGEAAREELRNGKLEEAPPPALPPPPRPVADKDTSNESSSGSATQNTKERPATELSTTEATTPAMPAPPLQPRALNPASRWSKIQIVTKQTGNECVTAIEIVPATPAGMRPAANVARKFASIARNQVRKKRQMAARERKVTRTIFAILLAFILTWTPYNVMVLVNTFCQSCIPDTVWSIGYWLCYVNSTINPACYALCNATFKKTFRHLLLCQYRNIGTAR
Assay: mAChR M4 cell-based functional assay: calcium mobilization (Fluo-4, FDSS), potentiation of EC20 acetylcholine response in hM4-Gqi5 CHO-K1 cells
Details: human M4; for Emax at 30 µM: CHO-K1, % ACh maximum at 30 μM; for EC50: potentiation of EC20 acetylcholine response, calcium mobilization
Procedure, shortened: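 Readout is the fluorescence-ratio rise at 1 Hz on FDSS, with PAM activity taken as concentration-dependent enhancement of the EC20 acetylcholine response, fitted four-parameter for EC50/Emax. hM4-Gqi5 CHO-K1 cells carried Fluo-4 AM dye; test compounds (11 points, 1:3) preceded EC20 acetylcholine additions at 144 s and 230 s.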

| Emax at 30 µM [%] | EC50 [µM] | SMILES |
| --- | --- | --- |
| 61 | 2.45 | Cc1c(C2CC2)c(N2CCc3ncc(C(F)(F)F)cc3C2)nn2c(=O)ccnc12 [Compound 1-111, 8-cyclopropyl-9-methyl-7-(3-(trifluoromethyl)-7,8-dihydro-1,6-naphthyridin-6(5H)-yl)-4H-pyrimido[1,2-b]pyridazin-4-one] |
| 67 | 0.668 | Cc1ccc(-c2cnc3c(c2)CN(c2nn4c(=O)ccnc4c(C)c2C2CC2)CC3)cn1 [Compound 1-112, 8-cyclopropyl-9-methyl-7-(3-(6-methylpyridin-3-yl)-7,8-dihydro-1,6-naphthyridin-6(5H)-yl)-4H-pyrimido[1,2-b]pyridazin-4-one] |
| 73 | 0.262 | Cc1c(N2CCc3ncc(C(F)(F)F)cc3C2)nn2c(=O)ccnc2c1C1CC1 [Compound 1-113, 9-cyclopropyl-8-methyl-7-(3-(trifluoromethyl)-7,8-dihydro-1,6-naphthyridin-6(5H)-yl)-4H-pyrimido[1,2-b]pyridazin-4-one] |
| 73 | 0.615 | Cc1ccc(-c2cnc3c(c2)CN(c2nn4c(=O)ccnc4c(C4CC4)c2C)CC3)cn1 [Compound 1-114, 9-cyclopropyl-8-methyl-7-(3-(6-methylpyridin-3-yl)-7,8-dihydro-1,6-naphthyridin-6(5H)-yl)-4H-pyrimido[1,2-b]pyridazin-4-one] |
| 91 | 0.313 | Cc1ncccc1-c1cnc2c(c1)CN(c1nn3c(=O)cc(C(F)F)nc3c(C)c1C)CC2 [Compound 1-115, 2-(difluoromethyl)-8,9-dimethyl-7-(3-(2-methylpyridin-3-yl)-7,8-dihydro-1,6-naphthyridin-6(5H)-yl)-4H-pyrimido[1,2-b]pyridazin-4-one] |
| 93 | 0.019 | Cc1c(N2CCc3ncc(-c4cnccn4)cc3C2)nn2c(=O)cc(C(F)F)nc2c1C [Compound 1-116, 2-(difluoromethyl)-8,9-dimethyl-7-(3-(pyrazin-2-yl)-7,8-dihydro-1,6-naphthyridin-6(5H)-yl)-4H-pyrimido[1,2-b]pyridazin-4-one] |
| 90 | 0.198 | Cc1cc(=O)n2nc(N3CCc4ncc(-c5cnccc5C)cc4C3)c(C)c(C)c2n1 [Compound 1-117, 2,8,9-trimethyl-7-(3-(4-methylpyridin-3-yl)-7,8-dihydro-1,6-naphthyridin-6(5H)-yl)-4H-pyrimido[1,2-b]pyridazin-4-one] |
| 83 | 6.07 | Cc1cc(=O)n2nc(N3CCc4ncc(-c5cncnc5)cc4C3)c(C)c(C)c2n1 [Compound 1-118, 2,8,9-trimethyl-7-(3-(pyrimidin-5-yl)-7,8-dihydro-1,6-naphthyridin-6(5H)-yl)-4H-pyrimido[1,2-b]pyridazin-4-one] |
| 85 |  | Cc1cncc(-c2cnc3c(c2)CN(c2nn4c(=O)cc(C(F)F)nc4c(C)c2C)CC3)c1 [Compound 1-119, 2-(difluoromethyl)-8,9-dimethyl-7-(3-(5-methylpyridin-3-yl)-7,8-dihydro-1,6-naphthyridin-6(5H)-yl)-4H-pyrimido[1,2-b]pyridazin-4-one] |
| 65 | 0.749 | Cc1cc(=O)n2nc(N3CCc4ncc(-c5cnc6ccccc6c5)cc4C3)c(C)c(C)c2n1 [Compound 1-120, 2,8,9-trimethyl-7-(3-(quinolin-3-yl)-7,8-dihydro-1,6-naphthyridin-6(5H)-yl)-4H-pyrimido[1,2-b]pyridazin-4-one] |
| 83 | 0.722 | Cc1cc(=O)n2nc(N3CCc4ncc(-c5ccc(N(C)C)nc5)cc4C3)c(C)c(C)c2n1 [Compound 1-121, 7-(3-(6-(dimethylamino)pyridin-3-yl)-7,8-dihydro-1,6-naphthyridin-6(5H)-yl)-2,8,9-trimethyl-4H-pyrimido[1,2-b]pyridazin-4-one] |
| 93 | 2.93 | Cc1cc(=O)n2nc(N3CCc4ncc(-c5cccnc5C)cc4C3)c(C)c(C)c2n1 [Compound 1-122, 2,8,9-trimethyl-7-(3-(2-methylpyridin-3-yl)-7,8-dihydro-1,6-naphthyridin-6(5H)-yl)-4H-pyrimido[1,2-b]pyridazin-4-one] |
| 89 | 0.858 | Cc1cc(=O)n2nc(N3CCc4ncc(-c5cncc(Cl)c5)cc4C3)c(C)c(C)c2n1 [Compound 1-123, 7-(3-(5-chloropyridin-3-yl)-7,8-dihydro-1,6-naphthyridin-6(5H)-yl)-2,8,9-trimethyl-4H-pyrimido[1,2-b]pyridazin-4-one] |
| 84 | 3.41 | Cc1cc(=O)n2nc(N3CCc4ncc(-c5cncc(C(F)(F)F)c5)cc4C3)c(C)c(C)c2n1 [Compound 1-124, 2,8,9-trimethyl-7-(3-(5-(trifluoromethyl)pyridin-3-yl)-7,8-dihydro-1,6-naphthyridin-6(5H)-yl)-4H-pyrimido[1,2-b]pyridazin-4-one] |
| 97 | 0.368 | Cc1cc(=O)n2nc(N3CCc4ncc(-c5cnccn5)cc4C3)c(C)c(C)c2n1 [Compound 1-125, 2,8,9-trimethyl-7-(3-(pyrazin-2-yl)-7,8-dihydro-1,6-naphthyridin-6(5H)-yl)-4H-pyrimido[1,2-b]pyridazin-4-one] |
| 88 | 0.758 | Cc1cc(=O)n2nc(N3CCc4ncc(-c5cnccc5Cl)cc4C3)c(C)c(C)c2n1 [Compound 1-126, 7-(3-(4-chloropyridin-3-yl)-7,8-dihydro-1,6-naphthyridin-6(5H)-yl)-2,8,9-trimethyl-4H-pyrimido[1,2-b]pyridazin-4-one] |
| 86 | 1.24 | Cc1cncc(-c2cnc3c(c2)CN(c2nn4c(=O)cc(C)nc4c(C)c2C)CC3)c1 [Compound 1-127, 2,8,9-trimethyl-7-(3-(5-methylpyridin-3-yl)-7,8-dihydro-1,6-naphthyridin-6(5H)-yl)-4H-pyrimido[1,2-b]pyridazin-4-one] |
| 80 | 0.768 | Cc1cc(=O)n2nc(N3CCc4ncc(-c5ccc(C6CC6)nc5)cc4C3)c(C)c(C)c2n1 [Compound 1-128, 7-(3-(6-cyclopropylpyridin-3-yl)-7,8-dihydro-1,6-naphthyridin-6(5H)-yl)-2,8,9-trimethyl-4H-pyrimido[1,2-b]pyridazin-4-one] |
| 91 | 1.62 | Cc1cc(=O)n2nc(N3CCc4ncc(-c5cccnc5)cc4C3)c(C)c(C)c2n1 [Compound 1-129, 2,8,9-trimethyl-7-(3-(pyridin-3-yl)-7,8-dihydro-1,6-naphthyridin-6(5H)-yl)-4H-pyrimido[1,2-b]pyridazin-4-one] |
| 84 | 8.09 | Cc1cc(=O)n2nc(N3CCc4ncc(-c5ccc(C(F)(F)F)nc5)cc4C3)c(C)c(C)c2n1 [Compound 1-130, 2,8,9-trimethyl-7-(3-(6-(trifluoromethyl)pyridin-3-yl)-7,8-dihydro-1,6-naphthyridin-6(5H)-yl)-4H-pyrimido[1,2-b]pyridazin-4-one] |
| 62 | 1.76 | Cc1cc(=O)n2nc(N3CCc4ncc(-c5cn6ccnc6cc5C)cc4C3)c(C)c(C)c2n1 [Compound 1-131, 2,8,9-trimethyl-7-(3-(7-methylimidazo[1,2-a]pyridin-6-yl)-7,8-dihydro-1,6-naphthyridin-6(5H)-yl)-4H-pyrimido[1,2-b]pyridazin-4-one] |
| 92 | 0.798 | Cc1cc(=O)n2nc(N3CCc4ncc(-c5ccnnc5)cc4C3)c(C)c(C)c2n1 [Compound 1-132, 2,8,9-trimethyl-7-(3-(pyridazin-4-yl)-7,8-dihydro-1,6-naphthyridin-6(5H)-yl)-4H-pyrimido[1,2-b]pyridazin-4-one] |
| 79 | 0.556 | Cc1cc(=O)n2nc(N3CCc4ncc(-c5ccc6nccn6c5)cc4C3)c(C)c(C)c2n1 [Compound 1-133, 7-(3-(imidazo[1,2-a]pyridin-6-yl)-7,8-dihydro-1,6-naphthyridin-6(5H)-yl)-2,8,9-trimethyl-4H-pyrimido[1,2-b]pyridazin-4-one] |
| 88 | 0.7 | Cc1cc(=O)n2nc(N3CCc4ncc(-c5cncc(F)c5)cc4C3)c(C)c(C)c2n1 [Compound 1-134, 7-(3-(5-fluoropyridin-3-yl)-7,8-dihydro-1,6-naphthyridin-6(5H)-yl)-2,8,9-trimethyl-4H-pyrimido[1,2-b]pyridazin-4-one] |
| 97 | 0.626 | Cc1ccc(-c2cnc3c(c2)CN(c2nn4c(=O)cc(C)nc4c(C)c2C)CC3)cc1 [Compound 1-135, 2,8,9-trimethyl-7-(3-(p-tolyl)-7,8-dihydro-1,6-naphthyridin-6(5H)-yl)-4H-pyrimido[1,2-b]pyridazin-4-one] |
| 102 | 0.633 | Cc1ccc(-c2cnc3c(c2)CN(c2nn4c(=O)cc(C)nc4c(C)c2C)CC3)c(C)c1 [Compound 1-136, 7-(3-(2,4-dimethylphenyl)-7,8-dihydro-1,6-naphthyridin-6(5H)-yl)-2,8,9-trimethyl-4H-pyrimido[1,2-b]pyridazin-4-one] |
